{
  "source": "patent US6140487A",
  "about": "(Kabushiki Kaisha Hayashibara Seibutsu Kagaku Kenkyujo, priority 1996, dated 2000)",
  "data": [
    {"molecular_target": "T1, kojibiose phosphorylase (Thermoanaerobacter brockii, UniProt Q8L163)", "T1 sequence (Q8L163 1-775)": "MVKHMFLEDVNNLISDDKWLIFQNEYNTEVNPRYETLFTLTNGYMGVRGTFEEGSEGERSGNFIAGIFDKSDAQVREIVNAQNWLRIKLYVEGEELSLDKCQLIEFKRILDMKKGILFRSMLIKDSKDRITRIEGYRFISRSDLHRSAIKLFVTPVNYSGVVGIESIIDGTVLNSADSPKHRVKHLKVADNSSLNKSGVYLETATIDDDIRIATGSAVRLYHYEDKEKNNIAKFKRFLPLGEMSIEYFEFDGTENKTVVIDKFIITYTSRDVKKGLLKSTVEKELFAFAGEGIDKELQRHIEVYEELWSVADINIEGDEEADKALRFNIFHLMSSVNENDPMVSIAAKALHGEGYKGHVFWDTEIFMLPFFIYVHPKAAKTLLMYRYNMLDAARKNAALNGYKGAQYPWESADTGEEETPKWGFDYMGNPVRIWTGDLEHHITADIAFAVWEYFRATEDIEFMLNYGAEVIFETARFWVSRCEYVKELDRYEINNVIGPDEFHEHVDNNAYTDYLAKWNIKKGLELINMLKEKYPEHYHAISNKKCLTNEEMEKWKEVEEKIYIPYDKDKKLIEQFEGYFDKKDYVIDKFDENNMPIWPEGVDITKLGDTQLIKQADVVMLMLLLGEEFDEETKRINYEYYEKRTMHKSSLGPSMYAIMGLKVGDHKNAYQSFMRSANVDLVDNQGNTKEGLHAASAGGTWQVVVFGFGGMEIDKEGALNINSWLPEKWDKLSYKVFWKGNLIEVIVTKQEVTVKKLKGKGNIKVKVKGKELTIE", "assay": "Substrate specificity for saccharide-hydrolyzing reaction by kojibiose phosphorylase (TLC)", "details": "summary of Table 1", "text": "The saccharide concentration of each reaction solution was 2 w/v %. Pre-reaction solutions and post-reaction mixtures were subjected to thin layer chromatography (hereinafter abbreviated as \"TLC\") using \"[sequence] 60 (20×20 cm)\", an aluminum plate for TLC commercialized by Merck & Co., Inc., Rahway, USA. Samples were developed once at ambient temperature on the plate using 1-butanol/pyridine/water (=7:3:1 by volume) as a developing solvent system, and the plate was sprayed with 20 v/v % sulfuric acid/methanol solution, and heated at 110° C. for about 10 min for coloration. Comparing spots of the solutions and mixtures detected on the plates, it was checked whether the enzyme acted on the saccharides.", "values": [
      {"molecule": "OC[C@H]1O[C@H](O[C@H]2C(O)O[C@H](CO)[C@@H](O)[C@@H]2O)[C@H](O)[C@@H](O)[C@@H]1O", "note": "(stereo partly drawn) [Kojibiose]", "Action of kojibiose phosphorylase on the saccharide (substrate specificity, in words)": "acted on it"}
    ]},
    {"test_system": "7week-old dd-strain mice", "assay": "Acute toxicity test, oral administration", "type": "in vivo", "details": "powdery product rich in the saccharide, maximum dose 50 g/kg mouse by weight", "procedure": "Acute toxicity test of the powdery products rich in glucosylsorbose, kojitriose, kojibiosylglucoside, and kojibiosylfructoside in Experiments 8-12 were tested in 7week-old dd-strain mice by administering orally. As a result, no mouse died even when administered with their maximum doses, i.e., 50 g/kg mouse by weight.", "values": [
      {"molecule": "OC[C@H]1O[C@H](O[C@H]2O[C@H](CO)[C@@H](O)[C@H](O)[C@H]2O[C@H]2O[C@H](CO)[C@@H](O)[C@H](O)[C@H]2O)[C@H](O)[C@@H](O)[C@@H]1O", "note": "[kojibiosylglucoside, α-D-glucosyl-(1→2)-α-D-glucosyl-(1,1)-α-D-glucoside]", "Acute toxicity: death of mice": "no mouse died"},
      {"molecule": "OC[C@H]1O[C@H](O[C@H]2[C@@H](O[C@H]3C(O)O[C@H](CO)[C@@H](O)[C@@H]3O)O[C@H](CO)[C@@H](O)[C@@H]2O)[C@H](O)[C@@H](O)[C@@H]1O", "note": "(stereo partly drawn) [kojitriose, α-D-glucosyl-(1→2)-α-D-glucosyl-(1→2)-D-glucose]", "Acute toxicity: death of mice": "no mouse died"},
      {"molecule": "O=C(CO)[C@@H](O)[C@H](O)[C@H](CO)O[C@H]1O[C@H](CO)[C@@H](O)[C@H](O)[C@H]1O", "note": "[glucosylsorbose, α-D-glucosyl-(1→5)-L-sorbose]", "Acute toxicity: death of mice": "no mouse died"},
      {"molecule": "OC[C@H]1O[C@@](CO)(O[C@H]2O[C@H](CO)[C@@H](O)[C@H](O)[C@H]2O[C@H]2O[C@H](CO)[C@@H](O)[C@H](O)[C@H]2O)[C@@H](O)[C@@H]1O", "note": "[kojibiosylfructoside, α-D-glucosyl-(1→2)-α-D-glucosyl-(1→2)-β-D-fructoside]", "Acute toxicity: death of mice": "no mouse died"}
    ]},
    {"molecular_target": "T1, kojibiose phosphorylase", "assay": "Specificity to acceptor in glucosyl-transferred saccharide-forming reaction by kojibiose phosphorylase (TLC)", "type": "biochemical, Thermoanaerobium brockii, ATCC 35047", "design": "made in house; host or cells: Thermoanaerobium brockii, ATCC 35047 (natural producer, not recombinant; cell lysate purified by column chromatography)", "details": "summary of Table 2", "excerpt": "(§1) The concentrations of the acceptors and the saccharide donors were adjusted to one w/v %. Similarly as in Experiment 5, the pre-reaction solutions and the post reaction mixtures were subjected to TLC, followed by coloring the plates. […] By macroscopically observing the coloration degree of the newly detected spots, the yield of the transferred saccharides was relatively evaluated.", "values": [
      {"molecule": "OC[C@H]1O[C@H](O[C@H]2[C@H](O)[C@@H](O)[C@@H](O[C@H]3[C@H](O)[C@@H](O)[C@@H](O[C@H]4[C@H](O)[C@@H](O)C(O)O[C@@H]4CO)O[C@@H]3CO)O[C@@H]2CO)[C@H](O)[C@@H](O)[C@@H]1O", "note": "(stereo partly drawn) [Maltotetraose]", "Transfer of glucosyl group from β-D-glucose-1-phosphoric acid to the acceptor (in words)": "effectively transferred glucosyl group"},
      {"molecule": "OC[C@H]1O[C@H](O[C@H]2[C@H](O)[C@@H](O)[C@H](O)O[C@@H]2CO)[C@H](O)[C@@H](O)[C@@H]1O", "note": "[Maltose]", "Transfer of glucosyl group from β-D-glucose-1-phosphoric acid to the acceptor (in words)": "effectively transferred glucosyl group"},
      {"molecule": "OC[C@H]1O[C@@](CO)(O[C@H]2O[C@H](CO)[C@@H](O)[C@H](O)[C@H]2O)[C@@H](O)[C@@H]1O", "note": "[Sucrose]", "Transfer of glucosyl group from β-D-glucose-1-phosphoric acid to the acceptor (in words)": "effectively transferred glucosyl group"},
      {"molecule": "OC[C@H]1O[C@H](O[C@H]2C(O)O[C@H](CO)[C@@H](O)[C@@H]2O)[C@H](O)[C@@H](O)[C@@H]1O", "note": "(stereo partly drawn) [Kojibiose]", "Transfer of glucosyl group from β-D-glucose-1-phosphoric acid to the acceptor (in words)": "effectively transferred glucosyl group"},
      {"molecule": "OC[C@H]1OC(O)[C@H](O)[C@@H](O)[C@@H]1O", "note": "(stereo partly drawn) [D-Glucose]", "Transfer of glucosyl group from β-D-glucose-1-phosphoric acid to the acceptor (in words)": "effectively transferred glucosyl group"},
      {"molecule": "OCC1(O)OC[C@H](O)[C@@H](O)[C@@H]1O", "note": "(stereo partly drawn) [L-Sorbose]", "Transfer of glucosyl group from β-D-glucose-1-phosphoric acid to the acceptor (in words)": "effectively transferred glucosyl group"},
      {"molecule": "OC[C@H]1O[C@H](O[C@H]2O[C@H](CO)[C@@H](O)[C@H](O)[C@H]2O)[C@H](O)[C@@H](O)[C@@H]1O", "note": "[Trehalose]", "Transfer of glucosyl group from β-D-glucose-1-phosphoric acid to the acceptor (in words)": "effectively transferred glucosyl group"},
      {"molecule": "OC[C@H]1O[C@H](O[C@H]2[C@H](O)[C@@H](O)[C@@H](O[C@H]3[C@H](O)[C@@H](O)[C@@H](O[C@H]4[C@H](O)[C@@H](O)[C@@H](O[C@H]5[C@H](O)[C@@H](O)C(O)O[C@@H]5CO)O[C@@H]4CO)O[C@@H]3CO)O[C@@H]2CO)[C@H](O)[C@@H](O)[C@@H]1O", "note": "(stereo partly drawn) [Maltopentaose]", "Transfer of glucosyl group from β-D-glucose-1-phosphoric acid to the acceptor (in words)": "effectively transferred glucosyl group"},
      {"molecule": "OC[C@H]1O[C@H](O[C@H]2[C@H](O)[C@@H](O)[C@@H](O[C@H]3[C@H](O)[C@@H](O)C(O)O[C@@H]3CO)O[C@@H]2CO)[C@H](O)[C@@H](O)[C@@H]1O", "note": "(stereo partly drawn) [Maltotriose]", "Transfer of glucosyl group from β-D-glucose-1-phosphoric acid to the acceptor (in words)": "effectively transferred glucosyl group"}
    ]},
    {"molecular_target": "T1, kojibiose phosphorylase", "assay": "Specificity to acceptor in glucosyl-transferred saccharide-forming reaction by kojibiose phosphorylase (TLC)", "type": "biochemical, Thermoanaerobium brockii, ATCC 35047", "design": "made in house; host or cells: Thermoanaerobium brockii, ATCC 35047 (natural producer, not recombinant; cell lysate purified by column chromatography)", "details": "used in place of β-D-glucose-1-phosphoric acid", "excerpt": "as §1", "values": [
      {"molecule": "O=P(O)(O)O[C@H]1O[C@H](CO)[C@@H](O)[C@H](O)[C@H]1O", "note": "[α-D-glucose-1-phosphoric acid]", "Formation of glucosyl-transferred saccharide with the substance as saccharide donor": "No glucosyl-transferred saccharide was formed"}
    ]}
  ]
}
